According to PubChem BioAssay AID248 (DTP/NCI, 2004):
Where “and” joins values, the source holds several entries; their conditions need not be identical. Equal values may be shown once. Inconclusive results and toxic doses are left out.

System: L1210 leukemia ip in BDF1 mice, survival T/C
Test: NCI In Vivo Anticancer Drug Screen. Data for tumor model L1210 Leukemia (intraperitoneal) in B6D2F1 (BDF1) mice
Conditions: endpoint: mean survival time, higher = longer survival
In short: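 Antitumor effect is assessed in tumor-bearing animals. Survival in the compound arm is compared with a vehicle-dosed control arm and expressed as their quotient.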

[1] = dose: 100.0 mg/kg/injection, schedule: Q01DX001 (ip), vehicle: Klucel (hydroxypropylcellulose) (HPC)
[2] = dose: 200.0 mg/kg/injection, schedule: Q01DX001 (ip), vehicle: Klucel (hydroxypropylcellulose) (HPC)
[3] = dose: 400.0 mg/kg/injection, schedule: Q01DX001 (ip), vehicle: Klucel (hydroxypropylcellulose) (HPC)
[4] = dose: 100.0 mg/kg/injection, schedule: Q04DX002 (ip), vehicle: saline with Tween-80
[5] = dose: 200.0 mg/kg/injection, schedule: Q04DX002 (ip), vehicle: saline with Tween-80
[6] = dose: 100.0 mg/kg/injection, schedule: Q01DX009 (ip), vehicle: saline
[7] = dose: 200.0 mg/kg/injection, schedule: Q01DX009 (ip), vehicle: saline
[8] = dose: 400.0 mg/kg/injection, schedule: Q01DX009 (ip), vehicle: saline
[9] = dose: 100.0 mg/kg/injection, schedule: Q04DX003 (ip), vehicle: saline
[10] = dose: 200.0 mg/kg/injection, schedule: Q04DX003 (ip), vehicle: saline
[11] = dose: 400.0 mg/kg/injection, schedule: Q04DX003 (ip), vehicle: saline
[12] = dose: 50.0 mg/kg/injection, schedule: Q01DX009 (ip), vehicle: Klucel (hydroxypropylcellulose) (HPC)
[13] = dose: 100.0 mg/kg/injection, schedule: Q01DX009 (ip), vehicle: Klucel (hydroxypropylcellulose) (HPC)
[14] = dose: 400.0 mg/kg/injection, schedule: Q04DX002 (ip), vehicle: saline with Tween-80
[15] = dose: 25.0 mg/kg/injection, schedule: Q01DX009 (ip), vehicle: saline

With `CC(=O)OC1(C)CC(C)C(O)C(C(O)CC2CC(=O)NC(=O)C2)C1` (centres undefined) the T/C (dose: 5.0 mg/kg/injection, schedule: Q01DX001 (ip), vehicle: water) was 98 % of control, the T/C (dose: 10.0 mg/kg/injection, schedule: Q01DX001 (ip), vehicle: water) was 107 % of control and the T/C (dose: 20.0 mg/kg/injection, schedule: Q01DX001 (ip), vehicle: water) was 112 % of control.

In the case of `CN(C)C(=S)SCC(N)=O`, the T/C [1] is reported as 103 % of control, the T/C [2] is reported as 100 % of control and the T/C [3] is reported as 103 % of control.

With `c1ccc2n[nH]nc2c1` the T/C (dose: 50.0 mg/kg/injection, schedule: Q04DX002 (ip), vehicle: saline with Tween-80) was 95 % of control, the T/C [4] was 106 % of control and the T/C [5] was 98 % of control.

In the case of `CC(=O)Nc1ccc(/C=N/Nc2c([N+](=O)[O-])cc(C)cc2[N+](=O)[O-])cc1`, the T/C [6] is reported as 98 % of control, the T/C [7] is reported as 96 % of control and the T/C [8] is reported as 94 % of control.

`CCCCNC(=O)Nc1ncn[nH]1` was tested, and the T/C (dose: 75.0 mg/kg/injection, schedule: Q01DX001 (ip), vehicle: carboxymethylcellulose (CMC)) was 103 % of control, the T/C (dose: 150.0 mg/kg/injection, schedule: Q01DX001 (ip), vehicle: carboxymethylcellulose (CMC)) was 104 % of control and the T/C (dose: 300.0 mg/kg/injection, schedule: Q01DX001 (ip), vehicle: carboxymethylcellulose (CMC)) was 97 % of control.

`[CH3][Sb]1([CH3])([I])[CH2]CC[CH2]1` was tested, and the T/C [9] was 101 % of control, the T/C [10] was 97 % of control and the T/C [11] was 101 % of control.

`CP(c1ccccc1)c1ccccc1` was tested, and the T/C [12] was 98 % of control, the T/C [13] was 95 % of control and the T/C (dose: 100.0 mg/kg/injection, schedule: Q04DX003 (ip), vehicle: Klucel (hydroxypropylcellulose) (HPC)) was 104 % of control. The T/C (dose: 200.0 mg/kg/injection, schedule: Q04DX003 (ip), vehicle: Klucel (hydroxypropylcellulose) (HPC)) was 114 % of control.

For `Cc1cccc(CCl)c1`, the T/C (dose: 37.5 mg/kg/injection, schedule: Q01DX009 (ip), vehicle: saline sonified) was 106 % of control, the T/C (dose: 75.0 mg/kg/injection, schedule: Q01DX009 (ip), vehicle: saline sonified) was 95 % of control and the T/C [9] was 102 % of control. For the same compound, the T/C (dose: 150.0 mg/kg/injection, schedule: Q01DX009 (ip), vehicle: saline sonified) was 98 % of control, the T/C [10] was 100 % of control and the T/C [11] was 93 % of control.

For `O=C(CN1C(=O)c2ccccc2C1=O)NCC(=O)Nc1ccccc1`, the T/C (dose: 50.0 mg/kg/injection, schedule: Q01DX001 (ip), vehicle: saline) was 93 % of control, the T/C (dose: 100.0 mg/kg/injection, schedule: Q01DX001 (ip), vehicle: saline) was 98 % of control and the T/C (dose: 200.0 mg/kg/injection, schedule: Q01DX001 (ip), vehicle: saline) was 104 % of control. For the same compound, the T/C (dose: 400.0 mg/kg/injection, schedule: Q01DX001 (ip), vehicle: saline) was 93 % of control.

In the case of `Cc1c(O)c2ccccc2[nH]c1=O`, the T/C [4] is reported as 97 % of control, the T/C [5] is reported as 103 % of control and the T/C [14] is reported as 106 % of control.

In the case of `NC(=O)c1nn(C2OC(CO)C(O)C2O)c2ncnc(N)c12` (centres undefined), the T/C (dose: 50.0 mg/kg/injection, schedule: Q01DX005 (ip), vehicle: saline) is reported as 236 % of control, the T/C (dose: 100.0 mg/kg/injection, schedule: Q01DX005 (ip), vehicle: saline) is reported as 258 % of control and the T/C (dose: 200.0 mg/kg/injection, schedule: Q01DX005 (ip), vehicle: saline) is reported as 236 % of control.

In the case of `CC(=O)Nc1cc(C)ccc1C`, the T/C (dose: 50.0 mg/kg/injection, schedule: Q01DX001 (ip), vehicle: Klucel (hydroxypropylcellulose) (HPC)) is reported as 101 % of control, the T/C [1] is reported as 91 % of control and 101 % of control and the T/C [2] is reported as 94 % of control and 104 % of control. For the same compound, the T/C [3] was 94 % of control.

For `CC1Cc2c(cccc2[N+](=O)[O-])C1=O` (centres undefined), the T/C (dose: 100.0 mg/kg/injection, schedule: Q04DX003 (ip), vehicle: saline with Tween-80) was 101 % of control, the T/C (dose: 200.0 mg/kg/injection, schedule: Q04DX003 (ip), vehicle: saline with Tween-80) was 96 % of control and the T/C (dose: 400.0 mg/kg/injection, schedule: Q04DX003 (ip), vehicle: saline with Tween-80) was 107 % of control.

In the case of `C=CS(=O)CCCCCCCC` (centres undefined), the T/C (dose: 100.0 mg/kg/injection, schedule: Q04DX002 (ip), vehicle: Klucel (hydroxypropylcellulose) (HPC)) is reported as 102 % of control and the T/C (dose: 200.0 mg/kg/injection, schedule: Q04DX002 (ip), vehicle: Klucel (hydroxypropylcellulose) (HPC)) is reported as 102 % of control.

`c1ccc2c(c1)cc[n+]1c3ccccc3ccc21` was tested, and the T/C (dose: 1.25 mg/kg/injection, schedule: Q01DX001 (ip), vehicle: saline) was 97 % of control, the T/C (dose: 2.5 mg/kg/injection, schedule: Q01DX001 (ip), vehicle: saline) was 97 % of control and the T/C (dose: 5.0 mg/kg/injection, schedule: Q01DX001 (ip), vehicle: saline) was 103 % of control. The T/C (dose: 10.0 mg/kg/injection, schedule: Q01DX001 (ip), vehicle: saline) was 107 % of control.

In the case of `Cn1c2c(c(=O)n(C)c1=O)CC(=O)N2`, the T/C [12] is reported as 100 % of control and the T/C [13] is reported as 103 % of control.

`O=C1C=CC(=O)C(SCC(O)CO)=C1` (centres undefined) was tested, and the T/C (dose: 9.5 mg/kg/injection, schedule: Q01DX001 (ip), vehicle: other) was 94 % of control, the T/C (dose: 19.0 mg/kg/injection, schedule: Q01DX001 (ip), vehicle: other) was 95 % of control and the T/C (dose: 38.0 mg/kg/injection, schedule: Q01DX001 (ip), vehicle: other) was 100 % of control.

For `CC1(C)c2ccccc2N(CCCN2CCCCC2)c2ccccc21`, the T/C (dose: 9.0 mg/kg/injection, schedule: Q01DX001 (ip), vehicle: water) was 101 % of control, the T/C (dose: 18.0 mg/kg/injection, schedule: Q01DX001 (ip), vehicle: water) was 93 % of control and the T/C (dose: 36.0 mg/kg/injection, schedule: Q01DX001 (ip), vehicle: water) was 101 % of control. For the same compound, the T/C (dose: 50.0 mg/kg/injection, schedule: Q01DX001 (ip), vehicle: water) was 91 % of control, the T/C (dose: 100.0 mg/kg/injection, schedule: Q01DX001 (ip), vehicle: water) was 91 % of control and the T/C (dose: 200.0 mg/kg/injection, schedule: Q01DX001 (ip), vehicle: water) was 100 % of control.

`CCC(CC)N1CCCS1(=O)=O` was tested, and the T/C [6] was 93 % of control, the T/C [7] was 102 % of control and the T/C [8] was 96 % of control.

With `CC(/C=C/C=C/c1ccccc1)=N\O` the T/C [13] was 98 % of control, the T/C (dose: 200.0 mg/kg/injection, schedule: Q01DX009 (ip), vehicle: Klucel (hydroxypropylcellulose) (HPC)) was 90 % of control and the T/C (dose: 400.0 mg/kg/injection, schedule: Q01DX009 (ip), vehicle: Klucel (hydroxypropylcellulose) (HPC)) was 96 % of control.

With `CCN(CC)CCCOC(=O)C(c1ccccc1)C1CCCCC1` (centres undefined) the T/C (dose: 6.25 mg/kg/injection, schedule: Q01DX009 (ip), vehicle: saline) was 97 % of control, the T/C (dose: 6.25 mg/kg/injection, schedule: Q04DX003 (ip), vehicle: saline) was 100 % of control and the T/C (dose: 12.5 mg/kg/injection, schedule: Q01DX009 (ip), vehicle: saline) was 94 % of control. The T/C (dose: 12.5 mg/kg/injection, schedule: Q04DX003 (ip), vehicle: saline) was 102 % of control, the T/C [15] was 94 % of control and the T/C (dose: 25.0 mg/kg/injection, schedule: Q04DX003 (ip), vehicle: saline) was 102 % of control.

For `CCCCN(C)/N=N/c1nc[nH]c1C#N`, the T/C (dose: 75.0 mg/kg/injection, schedule: Q01DX001 (ip), vehicle: other) was 105 % of control, the T/C (dose: 75.0 mg/kg/injection, schedule: Q01DX009 (ip), vehicle: saline with Tween-80) was 103 % of control and the T/C (dose: 75.0 mg/kg/injection, schedule: Q04DX003 (ip), vehicle: saline with Tween-80) was 105 % of control. For the same compound, the T/C (dose: 150.0 mg/kg/injection, schedule: Q01DX001 (ip), vehicle: other) was 102 % of control, the T/C (dose: 150.0 mg/kg/injection, schedule: Q01DX009 (ip), vehicle: saline with Tween-80) was 105 % of control and the T/C (dose: 150.0 mg/kg/injection, schedule: Q04DX003 (ip), vehicle: saline with Tween-80) was 96 % of control. For the same compound, the T/C (dose: 300.0 mg/kg/injection, schedule: Q01DX001 (ip), vehicle: other) was 101 % of control, the T/C (dose: 300.0 mg/kg/injection, schedule: Q01DX009 (ip), vehicle: saline with Tween-80) was 109 % of control and the T/C (dose: 300.0 mg/kg/injection, schedule: Q04DX003 (ip), vehicle: saline with Tween-80) was 96 % of control.

In the case of `CCN(CC)CC(=O)NCC(C)(CCN1CCCCC1)c1cccc2ccccc12` (centres undefined), the T/C [15] is reported as 91 % of control, the T/C (dose: 50.0 mg/kg/injection, schedule: Q01DX009 (ip), vehicle: saline) is reported as 93 % of control and the T/C [9] is reported as 94 % of control.

With `CCCN(CCC)S(=O)(=O)CC` the T/C [4] was 99 % of control, the T/C [5] was 92 % of control and the T/C [14] was 99 % of control.
